Values quoted from earlier work, collected in patent US20240016871A1, “Non-toxic furocoumarin-rich plant extracts and related compositions for use as antimicrobial substance or medicament and other therapeutic uses” (ICE-P LIFE, S.L., priority 2020, published 2024).

Legend:
[1] = test system: p53 knockout mouse; details: platelets treated with amotosalen, after filtration and removal of amotosalen conjugated with pathogens
[2] = test system: DBA/2 strain mice; details: single oral doses

Row | Compound | carcinogenicity [1] | liver necrosis [2]
1 | Cc1oc2c(C)c3oc(=O)cc(C)c3cc2c1COCCN.Cl [amotosalen, amotosalen HCl] | non-carcinogenic | –
2 | O=c1ccc2ccccc2o1 [coumarin] | – | produce liver necrosis
